Experimental data from patent US10596218B2, “Coix seed oil containing 16 glycerides, and pharmaceutical preparation and use thereof” (ZHEJIANG KANGLAITE GROUP CO., LTD., priority 2014, dated 2020).
Values after ≈ are worked out from the molar mass of the structure shown.

Columns and labels:
Type in all cases: cell-based
[1] = test system: SMMC-7721 (human hepatic cancer cells); assay: MTT inhibition of cell growth in vitro, SMMC-7721; details: SMMC-7721, MTT, 48 h, read-out: IC50 values of samples in vitro
From the text: (§1) (1) Cell lines: PANC-1 (human pancreatic cancer cells), SKOV3 (human ovarian cancer cells), MCF-7 (human breast cancer cells), Bcap-37 (human breast cancer cells), SMMC-7721 (human hepatic cancer cells), HepG-2 (human hepatic cancer cells), A549 (human lung cancer cells) and H460 (human lung cancer cells), storaged and passaged maintainably in Research and Evaluation Center for Pharmacology, Shanghai Institute of Pharmaceutical Industry;
(§2) The inhibition effects of samples on the above-mentioned cell lines were detected by using MTT method. The specific procedures were as follows: […]
(§3) (4) Cells in a logarithmic growth stage were trypsinized and washed, then re-suspended in the medium containing 10% calf serum. The number of living cells was counted in Trypan blue dye exclusion method and cell suspensions were adjusted into a density of 2×10^5 cell/ml. […]
(§4) (7) 100 μl of crystal dissolving solution was added into each well and cells were incubated continuously in the incubator overnight, so as to dissolve the resulted formazan crystals sufficiently. Then, the absorbance value was measured at 570 nm for each well.
(§5) (8) Based on absorbance values, inhibition rates on the cell growth were calculated for sample groups of various concentrations. The calculation formula was as follows: (1−mean absorbance of experimental wells/mean absorbance of control wells)×100%

[2] = test system: Bcap-37 (human breast cancer cells); assay: MTT inhibition of cell growth in vitro, Bcap-37; details: Bcap37, Bcap-37, MTT, 48 h, read-out: IC50 values of samples in vitro
From the text: as §1, §2, §3, §4, §5

[3] = test system: PANC-1 (human pancreatic cancer cells); assay: MTT inhibition of cell growth in vitro, PANC-1; details: PANC-1, MTT, 48 h, read-out: IC50 values of samples in vitro
From the text: as §1, §2, §3, §4, §5

[4] = test system: H460 (human lung cancer cells); assay: MTT inhibition of cell growth in vitro, H460; details: NCI-H460, 48 h, read-out: IC50 values of samples in vitro
From the text: as §1, §2, §3, §4, §5

[5] = test system: SKOV3 (human ovarian cancer cells); assay: MTT inhibition of cell growth in vitro, SKOV3; details: SK-OV-3, 48 h, read-out: IC50 values of samples in vitro
From the text: as §1, §2, §3, §4, §5

IC50 [1]: 0.12 µg/mL (≈ 0.141 µM)
IC50 [2]: 0.28 µg/mL (≈ 0.328 µM)
IC50 [3]: 0.44 µg/mL (≈ 0.515 µM)
IC50 [4]: 0.49 µg/mL (≈ 0.574 µM)
IC50 [5]: 0.22 µg/mL (≈ 0.258 µM)
SMILES: CC(=O)O[C@H]1C(=O)[C@@]2(C)[C@H]([C@H](OC(=O)c3ccccc3)[C@]3(O)C[C@H](OC(=O)[C@H](O)[C@@H](NC(=O)c4ccccc4)c4ccccc4)C(C)=C1C3(C)C)[C@]1(OC(C)=O)CO[C@@H]1C[C@@H]2O [Taxol]
